2 compounds from patent US20260365670A1, “EGFR INHIBITORS AND USES THEREOF” (DIZAL (JIANGSU) PHARMACEUTICAL CO., LTD., priority 2022, published 2026) can be followed below.

Read-outs that look alike come from different tables or passages of the source. Where only a bound is given, the exact number is not on record here.

In one assay the target is T1, EGFR wild type (Homo sapiens, UniProt P00533).
T1 construct: purchased Carna Bio
Put plainly: Inhibition of EGFR wild type biochemical enzymatic activity (HTRF). The conditions noted are these: 1 mM ATP. The gist of the method:
(§1)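 Following 1 h at room temperature with titrated compound, 1 mM ATP and 1 μM biotin-TK peptide (Mg2+/Mn2+, CHAPS, DTT, 0.5% DMSO buffer), EDTA-containing detection reagent terminated each enzyme reaction. Time-resolved fluorescence (ex 320, em 665/615 nm) ratio tracked activity. IC50 values came from four-parameter fits.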
In general terms: Time-resolved FRET reads energy transfer from a long-lived donor to a nearby acceptor.

A further assay concerns the target T2, EGFR L858R (Homo sapiens, UniProt P00533, L858R).
T2 construct: purchased Carna Bio
Put plainly: Inhibition of EGFR L858R biochemical enzymatic activity (HTRF). The conditions noted are these: 1 mM ATP. The gist of the method:
as §1

For a further assay, the target named is T3, EGFR L858R/T790M (Homo sapiens, UniProt P00533, L858R/T790M).
T3 construct: purchased Carna Bio
The assay is described as follows: Inhibition of EGFR L858R/T790M biochemical enzymatic activity (HTRF). The conditions noted are these: 1 mM ATP. The gist of the method: as §1

Another assay deals with T4, EGFR Exon19Del (Homo sapiens, UniProt P00533, DEL746-750).
T4 construct: purchased Carna Bio
Put plainly: Inhibition of EGFR Exon19Del biochemical enzymatic activity (HTRF). The conditions noted are these: read-out: IC50 @Del19. The gist of the method:
as §1

The next assay deals with T5, EGFR Exon19Del/T790M (Homo sapiens, UniProt P00533, DEL746-750/T790M).
T5 construct: purchased Carna Bio
The assay is described as follows: Inhibition of EGFR Exon19Del/T790M biochemical enzymatic activity (HTRF). The conditions noted are these: 1 mM ATP. The gist of the method:
as §1

The target of a further assay is T6, EGFR[T790M/C797S/L858R] (Homo sapiens, UniProt P00533, C797S/L858R/T790M).
T6 construct: purchased Carna Bio
Put plainly: Inhibition of EGFR[T790M/C797S/L858R] biochemical enzymatic activity (HTRF). The conditions noted are these: 1 mM ATP. The gist of the method:
as §1

Assay [1] addresses T7, EGFR[T790M/C797S/d746-750] (Homo sapiens, UniProt P00533, C797S/DEL746-750/T790M).
T7 construct: purchased Carna Bio
The assay is described as follows: Inhibition of EGFR[T790M/C797S/d746-750] biochemical enzymatic activity (HTRF). The gist of the method:
as §1

The target of another assay is T8, EGFR (d746-750 C797S) (Homo sapiens, UniProt P00533, C797S/DEL746-750).
T8 construct: purchased signalchem
The assay is described as follows: Inhibition of EGFR (d746-750 C797S) biochemical enzymatic activity (HTRF). The conditions noted are these: 1 mM ATP. The gist of the method:
as §1

The target of another assay is T9, EGFR (C797S L858R) (Homo sapiens, UniProt P00533, C797S/L858R).
T9 construct: purchased signalchem
Put plainly: Inhibition of EGFR (C797S L858R) biochemical enzymatic activity (HTRF). The conditions noted are these: 1 mM ATP. The gist of the method: as §1

In assay [2] the test system is Ba/F3 cells expressing EGFR mutations. Put plainly: Cell proliferation assay, Ba/F3 cells expressing EGFR mutations (CellTiter-Glo, 72 hours). In kind it is cell-based. The conditions noted are these: Mus musculus, BaF3, 72 h. The gist of the method: (§2)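 GI50 is the concentration giving 50% proliferation inhibition. Growth for this was normalised to a baseline viability reading taken when compound was added, and to DMSO wells. PC-9 (500 cells/well) and mutant-EGFR Ba/F3 (5000 cells/well) are treated after overnight seeding in RPMI1640-based medium.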
On the technique in general: Cellular ATP, detected with luciferase, serves as a proxy for viable cell number.

The next assay has as its system PC-9. Put plainly: Cell proliferation assay, PC-9 cells (CellTiter-Glo, 72 hours). The conditions noted are these: Homo sapiens, PC-9, 72 h, PC9 cells, read-out: GI50 PC9. In kind it is cell-based. The gist of the method:
as §2

In the next assay the test system is A-431. The assay is described as follows: Cell proliferation assay, A-431 cells (GI50, Table 6). The conditions noted are these: Homo sapiens, A-431, A-431 cells. In kind it is cell-based. The procedure: [Worded in the source for another cell line; this cell line is reported under the same test.] Ba/F3 cells expressing EGFR mutations were seeded in 384-well plates at 5000 cells/well in RPMI1640 medium containing […]. PC-9 at 500 cells/well was seeded into 384-well plates in RPMI1640 medium with 10% FBS. After overnight incubation, the assay plates were dosed with compounds at a series of concentrations. Alongside dosing the assay plates, the day 0 plate was processed using CellTiter-Glo® Luminescent Cell Viability Assay (Promega) to measure the number of viable cells (G0). The assay plates were further incubated for 72 hours and the number of viable cells (G3) was measured. The percentage of proliferation was calculated as: […]=100×(G3 value of sample well−G0 value)/(G3 value of DMSO control−G0 value). The concentration of compound producing 50% proliferation inhibition (GI50) was further calculated in best-fit curves using XLFit software. N/A=not available.

Setting [3] is: BaF3 cells, EGFR DEL19 - C797S, read-out: GI50 DEL19 - C797S/BaF3.
Where [4] appears, read: BaF3 cells, EGFR DEL19 - T790-C797S, read-out: GI50 DEL19 - T790-C797S/BaF3.
Setting [5] is: BaF3 cells, EGFR L858R - C797S, read-out: GI50 L858R - C797S/BaF3.
The mark [6] stands for this setting: BaF3 cells, EGFR L858R - T790-C797S, read-out: GI50 L858R - T790-C797S/BaF3.
Where [7] appears, read: BaF3 cells, EGFR L858R - T790M, read-out: GI50 L858R - T790M/BaF3.
Where [8] appears, read: BaF3 cells, EGFR L858R, read-out: GI50 L858R/BaF3.
The mark [9] stands for this setting: EGFR DEL19 - T790M, read-out: GI50 DEL19 - T790M.

As a reminder, the IC50 is the concentration needed to halve the response being measured.

T7 sequence (P00533 with tags, fused parts or gaps DEL746-750/T790M/C797S limits assumed): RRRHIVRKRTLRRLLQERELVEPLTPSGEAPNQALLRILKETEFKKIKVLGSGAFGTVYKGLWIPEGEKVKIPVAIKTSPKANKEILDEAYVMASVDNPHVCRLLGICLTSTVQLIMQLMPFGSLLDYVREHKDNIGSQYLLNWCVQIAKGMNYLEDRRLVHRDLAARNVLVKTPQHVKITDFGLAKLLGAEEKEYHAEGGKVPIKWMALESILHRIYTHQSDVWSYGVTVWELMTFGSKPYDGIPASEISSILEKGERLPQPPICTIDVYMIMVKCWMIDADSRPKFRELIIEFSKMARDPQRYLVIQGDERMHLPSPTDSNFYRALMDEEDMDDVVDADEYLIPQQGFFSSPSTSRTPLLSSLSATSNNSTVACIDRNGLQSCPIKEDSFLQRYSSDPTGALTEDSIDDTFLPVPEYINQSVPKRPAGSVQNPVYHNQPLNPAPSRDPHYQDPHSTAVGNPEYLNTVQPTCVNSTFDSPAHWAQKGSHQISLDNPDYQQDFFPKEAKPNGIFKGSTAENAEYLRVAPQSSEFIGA
T9 sequence (P00533 25-1210 C797S/L858R): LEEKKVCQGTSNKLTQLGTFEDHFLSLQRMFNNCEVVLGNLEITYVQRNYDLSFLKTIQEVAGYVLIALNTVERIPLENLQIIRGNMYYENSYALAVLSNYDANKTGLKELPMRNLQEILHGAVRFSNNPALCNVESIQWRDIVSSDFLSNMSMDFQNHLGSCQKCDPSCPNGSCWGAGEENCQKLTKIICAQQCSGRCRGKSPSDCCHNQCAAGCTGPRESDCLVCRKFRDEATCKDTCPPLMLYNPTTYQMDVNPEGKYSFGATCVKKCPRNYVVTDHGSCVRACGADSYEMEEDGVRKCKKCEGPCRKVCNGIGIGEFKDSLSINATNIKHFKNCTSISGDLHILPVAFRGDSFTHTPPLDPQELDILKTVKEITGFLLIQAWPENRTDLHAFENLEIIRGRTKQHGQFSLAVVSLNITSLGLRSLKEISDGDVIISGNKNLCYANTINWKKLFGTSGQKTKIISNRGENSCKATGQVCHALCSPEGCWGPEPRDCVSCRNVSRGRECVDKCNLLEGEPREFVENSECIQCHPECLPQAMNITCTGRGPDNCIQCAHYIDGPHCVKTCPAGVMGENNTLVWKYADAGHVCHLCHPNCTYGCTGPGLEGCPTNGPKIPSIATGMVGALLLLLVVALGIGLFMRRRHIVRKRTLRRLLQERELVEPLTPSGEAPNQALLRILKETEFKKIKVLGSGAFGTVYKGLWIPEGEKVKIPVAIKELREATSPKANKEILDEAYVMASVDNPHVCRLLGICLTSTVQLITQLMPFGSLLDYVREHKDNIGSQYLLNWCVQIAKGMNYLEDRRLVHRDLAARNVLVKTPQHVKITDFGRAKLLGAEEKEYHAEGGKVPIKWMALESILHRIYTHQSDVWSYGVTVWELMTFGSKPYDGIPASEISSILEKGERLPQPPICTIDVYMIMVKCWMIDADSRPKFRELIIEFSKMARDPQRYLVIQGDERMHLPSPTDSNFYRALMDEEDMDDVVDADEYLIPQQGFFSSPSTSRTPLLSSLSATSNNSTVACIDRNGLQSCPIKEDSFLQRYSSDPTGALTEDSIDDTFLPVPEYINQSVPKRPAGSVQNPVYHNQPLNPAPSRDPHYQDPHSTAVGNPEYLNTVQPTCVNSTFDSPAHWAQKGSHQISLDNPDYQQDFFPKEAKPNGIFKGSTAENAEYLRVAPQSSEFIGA
T3 sequence (P00533 25-1210 T790M/L858R): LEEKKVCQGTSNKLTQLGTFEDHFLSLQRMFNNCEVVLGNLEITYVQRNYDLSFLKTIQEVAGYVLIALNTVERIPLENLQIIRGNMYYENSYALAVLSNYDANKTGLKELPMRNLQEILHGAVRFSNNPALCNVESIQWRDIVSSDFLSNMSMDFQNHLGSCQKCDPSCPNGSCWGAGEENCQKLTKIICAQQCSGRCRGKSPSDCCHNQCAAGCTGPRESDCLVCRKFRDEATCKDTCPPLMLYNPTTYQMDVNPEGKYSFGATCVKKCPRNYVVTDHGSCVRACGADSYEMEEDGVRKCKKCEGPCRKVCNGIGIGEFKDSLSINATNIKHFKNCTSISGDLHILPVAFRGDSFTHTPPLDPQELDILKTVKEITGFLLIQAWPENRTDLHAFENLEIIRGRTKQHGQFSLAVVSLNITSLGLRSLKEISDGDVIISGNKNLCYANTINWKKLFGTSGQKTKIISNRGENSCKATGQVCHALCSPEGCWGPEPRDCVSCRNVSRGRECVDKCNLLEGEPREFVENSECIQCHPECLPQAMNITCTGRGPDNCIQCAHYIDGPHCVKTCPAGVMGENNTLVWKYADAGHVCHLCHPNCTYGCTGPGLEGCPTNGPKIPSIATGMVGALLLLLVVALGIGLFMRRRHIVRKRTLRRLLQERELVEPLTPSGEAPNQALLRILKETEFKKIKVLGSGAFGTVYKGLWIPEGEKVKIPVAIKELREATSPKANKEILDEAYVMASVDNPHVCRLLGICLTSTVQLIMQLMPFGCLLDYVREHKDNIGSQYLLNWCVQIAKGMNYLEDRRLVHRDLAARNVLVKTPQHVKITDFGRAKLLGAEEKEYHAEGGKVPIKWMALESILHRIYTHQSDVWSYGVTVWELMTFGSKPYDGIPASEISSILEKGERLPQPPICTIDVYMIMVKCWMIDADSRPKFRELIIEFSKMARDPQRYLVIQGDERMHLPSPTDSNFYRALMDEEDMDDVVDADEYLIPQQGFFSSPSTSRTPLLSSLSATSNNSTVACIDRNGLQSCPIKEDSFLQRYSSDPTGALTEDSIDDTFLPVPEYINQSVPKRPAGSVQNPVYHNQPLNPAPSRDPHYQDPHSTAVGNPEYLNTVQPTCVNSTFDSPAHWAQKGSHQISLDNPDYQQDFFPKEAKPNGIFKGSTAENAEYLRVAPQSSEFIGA
T4 sequence (P00533 with tags, fused parts or gaps DEL746-750 limits assumed): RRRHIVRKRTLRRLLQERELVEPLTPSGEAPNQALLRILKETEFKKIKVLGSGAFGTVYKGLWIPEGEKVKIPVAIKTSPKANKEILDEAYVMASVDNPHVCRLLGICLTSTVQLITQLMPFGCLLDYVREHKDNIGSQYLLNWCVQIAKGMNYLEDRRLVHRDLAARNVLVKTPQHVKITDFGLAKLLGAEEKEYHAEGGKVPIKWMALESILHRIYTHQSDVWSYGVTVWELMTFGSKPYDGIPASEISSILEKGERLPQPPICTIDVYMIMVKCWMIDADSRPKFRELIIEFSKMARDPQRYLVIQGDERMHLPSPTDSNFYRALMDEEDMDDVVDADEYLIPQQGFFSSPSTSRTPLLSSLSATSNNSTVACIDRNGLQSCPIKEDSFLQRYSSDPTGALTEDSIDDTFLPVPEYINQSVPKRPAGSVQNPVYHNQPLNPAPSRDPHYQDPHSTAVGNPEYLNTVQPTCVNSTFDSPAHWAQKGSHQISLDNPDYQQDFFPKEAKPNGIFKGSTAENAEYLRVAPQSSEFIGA
T8 sequence (P00533 with tags, fused parts or gaps DEL746-750/C797S limits assumed): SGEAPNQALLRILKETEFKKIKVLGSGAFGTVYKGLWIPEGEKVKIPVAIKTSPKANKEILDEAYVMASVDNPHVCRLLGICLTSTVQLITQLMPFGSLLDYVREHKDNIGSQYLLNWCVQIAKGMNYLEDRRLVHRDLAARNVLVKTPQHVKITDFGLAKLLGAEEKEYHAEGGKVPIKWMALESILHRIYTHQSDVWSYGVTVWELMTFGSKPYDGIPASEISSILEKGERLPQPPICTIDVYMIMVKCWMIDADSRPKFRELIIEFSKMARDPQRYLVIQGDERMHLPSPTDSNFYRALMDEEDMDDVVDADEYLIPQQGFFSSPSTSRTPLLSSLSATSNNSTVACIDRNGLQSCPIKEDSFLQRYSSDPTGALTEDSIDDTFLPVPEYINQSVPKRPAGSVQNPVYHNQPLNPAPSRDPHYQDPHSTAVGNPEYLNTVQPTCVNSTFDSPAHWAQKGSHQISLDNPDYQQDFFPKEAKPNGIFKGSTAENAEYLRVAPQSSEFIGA
T5 sequence (P00533 with tags, fused parts or gaps DEL746-750/T790M limits assumed): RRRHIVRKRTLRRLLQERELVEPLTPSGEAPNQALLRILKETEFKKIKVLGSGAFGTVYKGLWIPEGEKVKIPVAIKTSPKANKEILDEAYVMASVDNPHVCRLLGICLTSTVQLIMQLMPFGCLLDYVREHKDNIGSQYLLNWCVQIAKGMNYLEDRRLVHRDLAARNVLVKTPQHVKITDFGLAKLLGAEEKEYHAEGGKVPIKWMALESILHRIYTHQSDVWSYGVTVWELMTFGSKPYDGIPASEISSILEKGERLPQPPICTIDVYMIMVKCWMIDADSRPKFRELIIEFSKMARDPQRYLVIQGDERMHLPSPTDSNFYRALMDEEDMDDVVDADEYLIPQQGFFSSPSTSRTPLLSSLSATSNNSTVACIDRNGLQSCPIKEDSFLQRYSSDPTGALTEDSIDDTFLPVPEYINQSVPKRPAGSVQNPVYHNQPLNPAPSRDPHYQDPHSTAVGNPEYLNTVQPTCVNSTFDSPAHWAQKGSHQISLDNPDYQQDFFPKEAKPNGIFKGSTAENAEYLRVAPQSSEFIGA

For the compound `Cn1ncc2c1OCCN1CC3CCC(C3)(C1)n1c(nc3cc(F)c(N4CCOCC4)cc31)NC(=O)c1cc-2c(=O)n(C)c1` (single isomer, unassigned) [Example A118B], the IC50 at EGFR wild type (EGFR WT, 1 h, room temperature, read-out: IC50 (nM) @WT) came out at 3640 nM; at EGFR L858R (1 h, room temperature, read-out: IC50 (nM) @L858R) it was 110 nM; on EGFR L858R/T790M (EGFR L858R-T790M, 1 h, room temperature, read-out: IC50 (nM) @L858R-T790M), 61 nM; on EGFR Exon19Del (EGFR Del19, 1 mM ATP, 1 h, room temperature) it was 8.7 nM; on EGFR Exon19Del/T790M (EGFR Del19-T790M, 1 h, room temperature, read-out: IC50 (nM) @Del19-T790M) it was 7.4 nM; at EGFR[T790M/C797S/L858R] (EGFR T790M-C797S-L858R, 1 h, room temperature, read-out: IC50 (nM) @T790M- C797S - L858R) it was 11 nM. Besides, the IC50 was 2.9 nM in assay [1] (EGFR T790M-C797S-Del19, 1 mM ATP, 1 h, room temperature, read-out: IC50 (nM) @T790M - C797S - Del19); 3.2 nM at EGFR (d746-750 C797S) (EGFR Del19-C797S, 1 h, room temperature, read-out: IC50 (nM) @Del19-C797S); 37 nM on EGFR (C797S L858R) (EGFR L858-C797S, 1 h, room temperature, read-out: IC50 (nM) @L858-C797S). Moreover, the GI50 in assay [2] (setting [3]) is 0.68 nM; in assay [2] (setting [4]), 4.1 nM; in assay [2] (setting [5]) it was 8.2 nM; in assay [2] (setting [6]), 6.7 nM; in [2] (setting [7]) it was 19 nM; in assay [2] (setting [8]), 3.8 nM. The GI50 in assay [2] (setting [9]) came to 1.8 nM; with PC-9, 16 nM; in the assay on A-431, 1120 nM.
Take `Cc1cc2cc(n1)-c1cnn(C)c1OCCN1CC3CCC(C3)(C1)n1c(nc3ccccc31)NC2=O` (single isomer, unassigned) [Example B8A, 15,21-dimethyl-23-oxa-2,9,11,16,20,21,26-heptaazaheptacyclo[24.4.1.1^{1,28}.1^{13,17}.0^{2,10}.0^{3,8}.0^{18,22}]tritriaconta-3,5,7,9,13,15,17(33),18(22),19-nonaen-12-one]: the IC50 on EGFR wild type (EGFR wild type, 1 h at room temperature, read-out: IC50 @WT) was more than 5000 nM; on EGFR L858R (1 h at room temperature, read-out: IC50 @L858R), more than 5000 nM; at EGFR L858R/T790M (EGFR L858R/T790M, 1 h at room temperature, read-out: IC50 @L858R-T790M), more than 5000 nM; on EGFR Exon19Del (EGFR Exon19Del, 1 mM ATP, 1 h at room temperature), 729 nM; at EGFR Exon19Del/T790M (EGFR Exon19Del/T790M, 1 h at room temperature, read-out: IC50 @Del19-T790M), 4000 nM; at EGFR[T790M/C797S/L858R] (EGFR[T790M/C797S/L858R], 1 h at room temperature, read-out: IC50 @T790M- C797S - L858R) it was more than 5000 nM. Also, the IC50 was 3990 nM in assay [1] (EGFR[T790M/C797S/d746-750], 1 mM ATP, 1 h at room temperature, read-out: IC50 @T790M - C797S - Del19); 659 nM on EGFR (d746-750 C797S) (EGFR (d746-750 C797S), 1 h at room temperature, read-out: IC50 @Del19-C797S); more than 5000 nM on EGFR (C797S L858R) (EGFR (C797S L858R), 1 h at room temperature, read-out: IC50 @L858-C797S). The GI50 was 620 nM in assay [2] (setting [3]); 251 nM in [2] (setting [4]); 2120 nM in assay [2] (setting [5]); 290 nM in [2] (setting [6]); 1170 nM in assay [2] (setting [7]); 3560 nM in assay [2] (setting [8]). Further, the GI50 in assay [2] (setting [9]) amounted to 298 nM; in the assay with PC-9, 2850 nM; in the assay on A-431, 6390 nM.
